Reference: US20030134859A1 (SANKYO COMPANY, LIMITED, priority 2000, published 2003)

How the values were obtained:
[1] = system: Mouse preadipocyte strain 3T3-L1; assay: Inhibition of differentiation as an indication of acetic acid uptake; format: cell-based; settings: control (0.01% dimethylsulfoxide) = 100%; for activity at 0.1 µM: Mus musculus, 3T3-L1, 0.1 μM test substance, read-out: Rate of Uptake (%) of [2-14C] acetic acid; for Rate of Uptake (%) of [2-14C] acetic acid: 0.1 μM test substance
How it was run: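 Confluent 3T3-L1 cells induced to differentiate for 4 days (insulin, IBMX, dexamethasone, 5% FBS) with test compound at 0.1 μM final or 0.01% DMSO, then 2 days in insulin maintenance medium, at 37 °C, 10% CO2. [2-14C]acetic acid uptake over 1 hr counted by scintillation; expressed as % of DMSO control.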

Rat white adipocytes = assay: Stimulation of differentiation of the adipocytes (Oil Red O); format: cell-based; settings: 100 nM test compound, 5 days, Oil Red O ABS550, control = 100%, blank = 0%, Table 7; for activity at 0.1 µM: Rattus norvegicus, Adipocyte, 120 h, read-out: Rate of Differentiation (%)
How it was run: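 Rat white adipocytes, 5,000 cells/well, cultured 5 days in differentiation-inducing medium with test compound at final 100 nM (0.1% DMSO). Cells fixed, stained with Oil Red O, dye extracted in DMSO and read at 550 nm; differentiation rate expressed relative to vehicle control (100%) and cell-free blank (0%).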

Compound	activity at 0.1 µM [1]	activity at 0.1 µM (Rat white adipocytes)	Rate of Uptake (%) of [2-14C] acetic acid [1]	Rate of Differentiation (%) (Rat white adipocytes)
O=C(Nc1nc(-c2ccc(Cl)c(Cl)c2)cs1)c1cc([N+](=O)[O-])ccc1Cl [Example 43, N-[4-(3,4-Dichlorophenyl)thiazol-2-yl]-(2-chloro-5-nitrophenyl)carboxamide]	56.7%	118%		
O=C(Nc1nccc2ccccc12)c1cc([N+](=O)[O-])ccc1Cl [Example 59, N-(Isoquinolin-1-yl)-(2-chloro-5-nitrophenyl)carboxamide]	36.3%	121%		
O=C(Nc1nc(Cl)cc(Cl)n1)c1cc([N+](=O)[O-])ccc1Cl [Example 83, N-(4,6-Dichloropyrimidin-2-yl)-(2-chloro-5-nitrophenyl)carboxamide]	75.6%	114%		
Cc1noc(NS(=O)(=O)c2ccc(NC(=O)c3cc([N+](=O)[O-])ccc3Cl)cc2)c1C [Example 104, N-[4-[(3,4-Dimethylisoxazol-6-yl)aminosulfonyl]phenyl]-(2-chloro-5-nitrophenyl)carboxamide]	89.8%	115%		
O=C(Nc1ccc(N2CCCCC2)cc1)c1cc([N+](=O)[O-])ccc1Cl [Example 114, N-[4-(Piperidin-1-yl)phenyl]-(2-chloro-5-nitrophenyl)carboxamide]	79%	118%		
Cc1ccc(C(=O)Nc2ccc(NC(=O)c3cc([N+](=O)[O-])ccc3Cl)cc2)cc1 [Example 121, N-[4-(4-Methylbenzoyl)aminophenyl]-(2-chloro-5-nitrophenyl)carboxamide]	81%	136%		
Cc1ccc2nc(NC(=O)c3cc([N+](=O)[O-])ccc3Cl)sc2c1 [Example 141, N-(6-Methybenzothiazol-2-yl)-(2-chloro-5-nitrophenyl)carboxamide]			78.7%	133.2%
CCc1ccc(S(=O)(=O)Nc2ccc(NC(=O)c3cc([N+](=O)[O-])ccc3Cl)cc2)cc1 [Example 150, N-[4-(4-Ethylbenzenesulfonylamino)phenyl]-(2-chloro-5-nitrophenyl)carboxamide]	82.9%	137%		
O=C(Nc1ccc(S(=O)(=O)N2CCCCC2)cc1)c1cc([N+](=O)[O-])ccc1Cl [Example 151, N-[4-(Piperidyisulfonyl)phenyl]-(2-chloro-5-nitrophenyl)carboxamide]	62.3%	118%		
O=C(Nc1ccc(S(=O)(=O)N2CCOCC2)cc1)c1cc([N+](=O)[O-])ccc1Cl [Example 153, N-[4-(Morpholin-4-ylsulfonyl)phenyl]-(2-chloro-5-nitrophenyl)carboxamide]	70.2%	110%		
N-[3-(Pyrrolidinylsulfonyl)phenyl]-(2-chloro-5-nitrophenyl)carboxamide [Example 154]			67.4%	123.8%
